# Measurements from ChEMBL document CHEMBL6083283, “Discovery of Dual CDK6/BRD4 Inhibitor Inducing Apoptosis and Increasing the Sensitivity of Ferroptosis in Triple-Negative Breast Cancer” (J Med Chem, 2024).
# Key:
# [1] = target: T1, Bromodomain-containing protein 2 (Homo sapiens, UniProt P25440)
# Description: Inhibition of BRD2 BD2 (unknown origin)
# [2] = target: T1, Bromodomain-containing protein 2; remark: listed apart in the source
# Description: Inhibition of BRD2 BD1 (unknown origin)
# [3] = target: CDK6/cyclin D3 (Homo sapiens, UniProt Q00534); assay: Inhibition of full length recombinant human CDK6/CyclinD3 co-expressed by baculovirus in Sf9 insect cells using histone H1 as substrate by ADP-glo kinase assay
# Sequence of CDK6/cyclin D3 (P30281 whole entry): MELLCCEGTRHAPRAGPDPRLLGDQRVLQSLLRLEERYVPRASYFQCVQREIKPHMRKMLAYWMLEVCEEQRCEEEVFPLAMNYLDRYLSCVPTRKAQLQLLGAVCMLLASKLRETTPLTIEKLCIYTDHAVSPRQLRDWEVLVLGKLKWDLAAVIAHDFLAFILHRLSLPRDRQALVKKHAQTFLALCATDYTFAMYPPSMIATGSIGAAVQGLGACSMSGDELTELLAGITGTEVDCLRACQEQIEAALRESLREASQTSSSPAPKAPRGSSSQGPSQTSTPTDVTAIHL
# Sequence of CDK6/cyclin D3 (Q00534 whole entry): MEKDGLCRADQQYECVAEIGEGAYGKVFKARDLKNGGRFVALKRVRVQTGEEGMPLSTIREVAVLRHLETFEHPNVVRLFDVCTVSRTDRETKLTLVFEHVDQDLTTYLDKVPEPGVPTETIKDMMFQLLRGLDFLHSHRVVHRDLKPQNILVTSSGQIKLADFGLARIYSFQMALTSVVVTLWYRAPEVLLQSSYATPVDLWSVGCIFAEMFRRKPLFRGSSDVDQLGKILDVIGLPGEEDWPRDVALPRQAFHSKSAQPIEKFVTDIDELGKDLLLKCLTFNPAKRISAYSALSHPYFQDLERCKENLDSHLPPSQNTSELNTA
# [4] = target: CDK9/cyclin T1 (Homo sapiens) (UniProt O60563+P50750); settings: dose 500.0 nM
# Description: Inhibition of CDK9/cyclinT1 (unknown origin) at 500 nM relative to control
# [5] = system: BT-549; assay: Antiproliferative activity against human BT-549 cells assessed as cell viability incubated for 72 hrs in presence of Palbociclib by MTT assay; assay type: functional, cell-based; settings: BT-549, 72 h
# [6] = in vitro; settings: human, MCF-10A cells
# Description: Antiproliferative activity against human MCF-10A cells assessed as cell viability incubated for 72 hrs by MTT assay
# [7] = system: MDA-MB-231; assay: cells; settings: Homo sapiens, MDA-MB-231, 72 h
# Description: Antiproliferative activity against human MDA-MB-231 cells assessed as cell viability incubated for 72 hrs by MTT assay
# [8] = in vitro; settings: human, liver microsomes
# [9] = system: MDA-MB-231; assay: Antiproliferative activity against human MDA-MB-231 cells assessed as cell viability incubated for 72 hrs in presence of Palbociclib by MTT assay; assay type: functional, cell-based; settings: MDA-MB-231, 72 h
# [10] = system: MDA-MB-231; assay: Antitumor activity against human MDA-MB-231 cells xenografted in BALB/c nude mouse assessed as tumor growth inhibition at 50 mg/kg, ip administered for 21 days; settings: MDA-MB-231, 504 h, read-out: TGI
# [11] = in vitro; settings: human, liver microsomes; remark: listed apart in the source
# Description: Metabolic stability in human liver microsome assessed as intrinsic clearance
# [12] = system: BT-549; assay: cells; settings: Homo sapiens, BT-549, 72 h
# Description: Antiproliferative activity against human BT-549 cells assessed as cell viability incubated for 72 hrs by MTT assay
# [13] = Antiproliferative activity against human MCF-10A cells assessed as cell viability incubated for 72 hrs in presence of Palbociclib by MTT assay; assay type: toxicity, cell-based
# T1 sequence (P25440 whole entry): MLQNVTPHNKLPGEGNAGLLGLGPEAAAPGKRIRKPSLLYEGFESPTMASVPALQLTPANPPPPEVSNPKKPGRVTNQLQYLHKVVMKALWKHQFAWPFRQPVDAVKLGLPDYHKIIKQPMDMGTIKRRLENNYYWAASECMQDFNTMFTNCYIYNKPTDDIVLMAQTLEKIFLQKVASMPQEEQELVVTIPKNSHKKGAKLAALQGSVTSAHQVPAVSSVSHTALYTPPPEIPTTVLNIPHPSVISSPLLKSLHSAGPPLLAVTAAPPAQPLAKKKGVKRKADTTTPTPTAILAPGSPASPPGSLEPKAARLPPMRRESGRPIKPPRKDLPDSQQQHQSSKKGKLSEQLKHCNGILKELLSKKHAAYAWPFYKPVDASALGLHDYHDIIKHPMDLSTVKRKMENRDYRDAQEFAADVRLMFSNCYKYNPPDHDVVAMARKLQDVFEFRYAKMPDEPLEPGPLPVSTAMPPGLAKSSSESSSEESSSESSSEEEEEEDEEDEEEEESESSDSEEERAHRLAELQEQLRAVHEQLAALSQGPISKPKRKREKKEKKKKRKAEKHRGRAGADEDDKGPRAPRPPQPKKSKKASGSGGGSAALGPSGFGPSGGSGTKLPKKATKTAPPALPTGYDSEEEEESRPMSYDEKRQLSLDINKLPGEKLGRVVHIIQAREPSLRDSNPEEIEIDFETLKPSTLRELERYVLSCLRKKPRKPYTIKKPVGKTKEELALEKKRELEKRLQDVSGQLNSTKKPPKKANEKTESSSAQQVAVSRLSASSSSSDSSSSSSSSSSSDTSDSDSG
structure (smiles),measurement,setting,value
COc1cc(OC)c2c(=O)[nH]c(-c3ccc(C(=O)N4CC5(CCN(c6ncc7c(C)cc(=O)n(C8CCCC8)c7n6)CC5)C4)cc3)nc2c1,IC50,[1],> 1 µM
same,IC50,[2],> 1 µM
same,IC50,[3],0.036 µM
same,inhibition,[4],43.4%
COc1cc(OC)c2c(=O)[nH]c(-c3ccc(C(=O)N4CCCC(CNc5ncc6c(C)cc(=O)n(C7CCCC7)c6n5)C4)cc3)nc2c1 (stereo not drawn),IC50,[3],0.297 µM
Cc1sc2c(c1C)C(c1ccc(Cl)cc1)=N[C@@H](CC(=O)OC(C)(C)C)c1nnc(C)n1-2,IC50,[5],1.05 µM
same,IC50 at 72 h,[6],> 20 µM
same,IC50,[7],6.44 µM
same,half-life,[8],35.4 min
same,IC50,[9],1.72 µM
same,inhibition in vivo at 50 mg/kg,[10],37.6%
same,microsomal CLint,[11],39.5 µL/min/mg
same,IC50,[12],5.06 µM
same,IC50 at 72 h,[13],> 20 µM
CC(=O)c1c(C)c2cnc(Nc3ccc(N4CCNCC4)cn3)nc2n(C2CCCC2)c1=O [PALBOCICLIB],IC50 at 72 h,[6],> 20 µM
same,IC50,[7],16.3 µM
same,inhibition in vivo at 50 mg/kg,[10],22%
same,IC50,[12],15.3 µM
